Test results: patent US4794197A, “All-cis-1,3,5-triamino-2,4,6,-cyclohexanetriol derivatives, their use, processes for their preparation and pharmaceutical preparations containing them” (priority 1985, dated 1988)
Read-outs that look alike come from different tables or passages of the source. Each block holds one compound with its values, some of them ahead of it.

Legend:
[1] = orientating LD50-toxicity test on white mice after intravenous injection; conditions: mouse, in vivo
Excerpt: (§1) all-cis-1,3,5-Triamino-2,4,6-cyclohexanetriol (10), all-cis-1,3,5-tris-(dimethylamino)-2,4,6-cyclohexane triol hydrochloride (12a), all-cis-1,3,5-tris-(trimethylammonio)-2,4,6-[…] (19c) and all-cis-1,3,5-tris-(succinoylamino)-2,4,6-cyclohexanetriol are found to have the following values in mg/kg of body weight in the orientating LD50 -toxicity test on white mice after intravenous injection: 158, 440, 235 and >1000. The elimination of iron from rats with an excessively high iron level by excretion in the urine and faeces after intravenous administration is shown in the following Table by comparison with the figures obtained with Desferal. The rates of excretion were measured over 72 hours after application.

[2] = system: rats with an excessively high iron level; assay: elimination of iron from rats with an excessively high iron level by excretion in urine and faeces after intravenous administration; format: in vivo; conditions: over 72 hours, by comparison with Desferal (= 1)
Excerpt: as §1

[3] = Response to β-FeO(OH): dissolution of this rust; conditions: in words
pK-values (approximate) = format: physicochemical
[4] = Response to iron(III): keeping iron(III) in solution by complex formation; format: physicochemical
[5] = general statement on toxicity
Solubility = format: physicochemical
[6] = parenteral; cited from earlier work
[7] = cited from earlier work
[8] = pK2, second lowest value of the list
[9] = pK3, third lowest value of the list
[10] = pK4, fourth lowest value of the list
[11] = pK5, fifth lowest value of the list
[12] = pK6, sixth lowest value of the list
[13] = white mice, intravenous injection, orientating test, read-out: LD50

SMILES: CN(C)[C@H]1[C@@H](O)[C@@H](N(C)C)[C@@H](O)[C@@H](N(C)C)[C@H]1O [Example 12a, all-cis-1,3,5-Tris-(dimethylammonio)-2,4,6-cyclohexanetriol trichloride dihydrate]
LD50 ([1]; iv): 440 mg/kg | elimination of iron by excretion in the faeces [2]: 0.5 | elimination of iron by excretion in the urine [2]: 1

SMILES: CCCCN(CC(=O)O)[C@H]1[C@@H](O)[C@@H](N(CCCC)CC(=O)O)[C@@H](O)[C@@H](N(CCCC)CC(=O)O)[C@H]1O [Example 15, all-cis-1,3,5-(N-butylammonioacetic acid)-2,4,6-cyclohexanetriol trichloride]
Response to β-FeO(OH) [3]: Identical to Examples 13 and 14

pKa (pK-values (approximate); highest pK of nitrile intermediate): ~6.5 | pKa (pK-values (approximate); next lowest pK of nitrile intermediate): ~3
SMILES: N#CCN[C@H]1[C@@H](O)[C@@H](NCC#N)[C@@H](O)[C@@H](NCC#N)[C@H]1O [all-cis-1,3,5-tris-(aminoacetic acid nitrile)-2,4,6-cyclohexanetriol]

pKa (pK-values (approximate); pK1, lowest value of the list): ~5.2 | pKa (pK-values (approximate); [8]): ~6 | pKa (pK-values (approximate); [9]): ~6.5 | pKa (pK-values (approximate); [10]): ~7 | pKa (pK-values (approximate); [11]): ~8 | pKa (pK-values (approximate); [12]): ~9.5
SMILES: O=P(O)(O)CN[C@H]1[C@@H](O)[C@@H](NCP(=O)(O)O)[C@@H](O)[C@@H](NCP(=O)(O)O)[C@H]1O [Example 11, all-cis-1,3,5-Tris-(ammoniomethanephosphonic acid)-2,4,6-cyclohexanetriol trichloride]

pKa (pK-values (approximate); pK1, lowest value of the list): ~6.2 | pKa (pK-values (approximate); [8]): ~8.2 | pKa (pK-values (approximate); [9]): ~9.7 | solubility of the iron complex ([4]; pH 3 to 6): relatively sparingly soluble
SMILES: O=C(O)CCN[C@H]1[C@@H](O)[C@@H](NCCC(=O)O)[C@@H](O)[C@@H](NCCC(=O)O)[C@H]1O [Example 12]
pH range in which a solution containing Fe(III) and ligand is clear ([4]; Fe(III):ligand=1:1, result in words): clear over the entire ranges of pH | maximum Fe(III) kept in solution per ligand ([4]; pH 7.5): ≤ 2 Fe(III) per ligand

SMILES: N[C@H]1[C@@H](O)[C@@H](N)[C@@H](O)[C@@H](N)[C@H]1O [Example 10, all-cis-1,3,5-Triamino-2,4,6-cyclohexanetriol]
LD50 [1, 13]: 158 mg/kg | elimination of iron by excretion in the faeces [2]: 0.2 | elimination of iron by excretion in the urine [2]: 0.1 | toxicity [5]: relatively low toxicity

SMILES: C[N+](C)(C)[C@H]1[C@@H](O)[C@@H]([N+](C)(C)C)[C@@H](O)[C@@H]([N+](C)(C)C)[C@H]1O [Example 19c]
LD50 [1, 13]: 235 mg/kg | elimination of iron by excretion in the faeces [2]: 0.5 | elimination of iron by excretion in the urine [2]: 0.2

pKa (pK-values (approximate); pK1, lowest value of the list): ~3 | pKa (pK-values (approximate); [8]): ~4.5 | pKa (pK-values (approximate); [9]): ~6.3
SMILES: N#CCCN[C@H]1[C@@H](O)[C@@H](NCCC#N)[C@@H](O)[C@@H](NCCC#N)[C@H]1O [all-cis-1,3,5-tris-(2'-aminopropionitrile)-2,4,6-cyclohexanetriol]

SMILES: CN(C)[C@H]1[C@@H](O)[C@@H](N(C)C)[C@@H](O)[C@@H](N(C)C)[C@H]1O [Example 12b, all-cis-1,3,5-Tris-(dimethylammonio)-2,4,6-cyclohexanetriol sulphate]
solubility in boiling methanol (Solubility; boiling methanol): virtually insoluble

pKa (pK-values (approximate); [10]): ~5.7 | pKa (pK-values (approximate); [11]): ~7.8 | pKa (pK-values (approximate); [12]): ~8.9 | pKa (pK-values (approximate); three lowest pK-values): < 3
SMILES: O=C(O)CN[C@H]1[C@@H](O)[C@@H](NCC(=O)O)[C@@H](O)[C@@H](NCC(=O)O)[C@H]1O [Example 13, all-cis-1,3,5-Tris-(ammonioacetic acid)-2,4,6-cyclohexanetriol trichloride]
precipitation of iron hydroxide ([4]; ligand:iron ratio of 1:1, pH higher than about 11): Iron hydroxide precipitates

SMILES: CC(=O)N(O)CCCCCNC(=O)CCC(=O)N(O)CCCCCNC(=O)CCC(=O)N(O)CCCCCN [Desferal, 30-amino-3,14,25-trihydroxy-3,9,14,20,25-pentaaza-2,10,13,21,24-triacontane-pentanone-methane sulphonate, reference compound]
elimination of iron by excretion in the faeces [2]: 1 | elimination of iron by excretion in the urine [2]: 1 | half life in the body [6]: very short | serious side effects after prolonged administration [7]: visual disturbances

SMILES: O=C(O)CCC(=O)N[C@H]1[C@@H](O)[C@@H](NC(=O)CCC(=O)O)[C@@H](O)[C@@H](NC(=O)CCC(=O)O)[C@H]1O [Example 16, all-cis-1,3,5a-tris-(succinoylamino)-2,4,6-cyclohexanetriol]
Solubility (Solubility; cyclohexane): sparingly | Solubility (Solubility; water): Readily | Solubility (Solubility; water/EtOH): Readily | Solubility (Solubility; water/MeOH): Readily | LD50 [1, 13]: > 1000 mg/kg
